Reference: article PMC10648349, “Aromatic Diboronic Acids as Effective KPC/AmpC Inhibitors” (Molecules, 2023)
≈ marks a conversion by molar mass, not a printed value.

Key:
[1] = test system: C. tropicalis ATCC 750; test: antifungal activity (disc-diffusion, MIC, MFC); format: cell-based; conditions: Candida tropicalis, ATCC750; fluconazole by Etest
How it was run: (§1)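 EUCAST/CLSI methods: disc diffusion at 0.4 mg compound/disc, broth MIC, then MBC (bacteria) or MFC (yeast). DMSO vehicle.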

[2] = test system: S. cerevisiae ATCC 9763; test: antifungal activity (disc-diffusion, MIC, MFC); format: cell-based; conditions: Saccharomyces cerevisiae, ATCC9763; for MIC: fluconazole by Etest; for zone of inhibition at 0.4 mg/disc: 0.4 mg per disc, 9 mm disc (fluconazole 0.025 mg, 6 mm disc), - no zone, read-out: Diameter of inhibition zone
How it was run: as §1

[3] = test system: C. tropicalis IBA 171; test: antifungal activity (disc-diffusion, MIC, MFC); format: cell-based; conditions: Candida tropicalis, IBA171; fluconazole by Etest
How it was run: as §1

[4] = test system: C. albicans ATCC 90028; test: antifungal activity (disc-diffusion, MIC, MFC); format: cell-based; conditions: Candida albicans, ATCC90028; fluconazole by Etest
How it was run: as §1

[5] = test system: B. subtilis ATCC 6633; test: direct antimicrobial activity (disc-diffusion); format: cell-based; conditions: Bacillus subtilis, ATCC6633; 0.4 mg per disc, 9 mm disc (linezolid 0.03 mg, 6 mm disc); - no zone; read-out: Diameter of inhibition zone
How it was run: as §1

[6] = test system: C. parapsilosis ATCC 22019; test: antifungal activity (disc-diffusion, MIC, MFC); format: cell-based, Candida parapsilosis; conditions: Lodderomyces parapsilosis, ATCC22019; for MIC: fluconazole by Etest; for zone of inhibition at 0.4 mg/disc: 0.4 mg per disc, 9 mm disc (fluconazole 0.025 mg, 6 mm disc), - no zone, read-out: Diameter of inhibition zone
How it was run: as §1

[7] = test system: P. aeruginosa MUW 700 cAmpC-positive; test: checkerboard microdilution, antibiotic plus tested agent; format: cell-based, Pseudomonas aeruginosa
How it was run: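 Read-out is the antibiotic MIC with agent present, plus FICI = combined/alone MIC ratios summed for both partners. Meropenem pairs served for carbapenemase strains and ceftazidime pairs for the AmpC strain. Agent or PBA was tested at 4–16 mg/L.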

[8] = MTT-based viability assay; format: cell-based; conditions: human, MRC-5 human fibroblasts, 72 h, read-out: Viability of MRC-5 cells (% of viable cells ± SD)
How it was run: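 MRC-5 human fibroblasts grown in MEME with 10% FBS at 37 °C, 5% CO2, tested by MTT with absorbance read at 570 nm. Viability given as percent of untreated control cells, in triplicate.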

[9] = test system: E. coli 77 CMY-2-positive; test: checkerboard microdilution, antibiotic plus tested agent; format: cell-based, Escherichia coli
How it was run: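 β-lactam 1–64 mg/L × agent/PBA 4–16 mg/L checkerboard; meropenem vs carbapenemase producers, ceftazidime vs AmpC producer; imipenem, ertapenem added for selected agents. Readout: combination MICs, FICI (average and lowest); off-scale MICs taken as next doubling.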

[10] = test system: K. pneumoniae ATCC BAA 1705 KPC-2-positive; test: combination disc test CDT-KPC; format: cell-based; conditions: Klebsiella pneumoniae, BAA1705, read-out: Diameter of inhibition zone, MEM-10 disc with agent; for zone of inhibition at 100 µg/disc: agent 0.1 mg per disc
[11] = test system: E. faecium ATCC 6057; test: direct antimicrobial activity (disc-diffusion, MIC, MBC); format: cell-based; conditions: Enterococcus faecium, ATCC6057; for zone of inhibition at 0.4 mg/disc: 0.4 mg per disc, 9 mm disc (linezolid 0.03 mg, 6 mm disc), - no zone, read-out: Diameter of inhibition zone
How it was run: as §1

[12] = test system: E. faecalis ATCC 29212; test: as above; format: cell-based; conditions: Enterococcus faecalis, ATCC29212; for zone of inhibition at 0.4 mg/disc: 0.4 mg per disc, 9 mm disc (linezolid 0.03 mg, 6 mm disc), - no zone, read-out: Diameter of inhibition zone
How it was run: as §1

[13] = test system: S. aureus ATCC 43300 MRSA; test: as above; format: cell-based; conditions: Staphylococcus aureus; for zone of inhibition at 0.4 mg/disc: 0.4 mg per disc, 9 mm disc (linezolid 0.03 mg, 6 mm disc), - no zone, read-out: Diameter of inhibition zone
How it was run: as §1

[14] = test system: S. aureus ATCC 6538P; test: as above; format: cell-based; conditions: Staphylococcus aureus, ATCC6538P; for zone of inhibition at 0.4 mg/disc: 0.4 mg per disc, 9 mm disc (linezolid 0.03 mg, 6 mm disc), - no zone, read-out: Diameter of inhibition zone
How it was run: as §1

[15] = test system: S. epidermidis ATCC 12228; test: as above; format: cell-based; conditions: Staphylococcus epidermidis, ATCC12228; for zone of inhibition at 0.4 mg/disc: 0.4 mg per disc, 9 mm disc (linezolid 0.03 mg, 6 mm disc), - no zone, read-out: Diameter of inhibition zone
How it was run: as §1

[16] = test system: C. krusei ATCC 6258; test: antifungal activity (disc-diffusion, MIC, MFC); format: cell-based, Candida krusei; conditions: Pichia kudriavzevii, ATCC6258; for MIC: fluconazole by Etest; for zone of inhibition at 0.4 mg/disc: 0.4 mg per disc, 9 mm disc (fluconazole 0.025 mg, 6 mm disc), - no zone, read-out: Diameter of inhibition zone
How it was run: as §1

[17] = test system: E. coli 77 CMY-2-positive; test: combination disc test CDT-AmpC; format: cell-based; conditions: Escherichia coli, read-out: Diameter of inhibition zone, CAZ-30 disc with agent; for zone of inhibition at 100 µg/disc: agent 0.1 mg per disc
[18] = test system: P. aeruginosa MUW 700 cAmpC-positive; test: combination disc test CDT-AmpC; format: cell-based; conditions: Pseudomonas aeruginosa, read-out: Diameter of inhibition zone, CAZ-30 disc with agent; for zone of inhibition at 100 µg/disc: agent 0.1 mg per disc

SMILES	MIC [1] [µg/mL]	MIC [2] [µg/mL]	MIC [3] [µg/mL]	MIC [4] [µg/mL]	zone of inhibition at 0.4 mg/disc [5] [mm]	MIC [6] [µg/mL]	Average FICI with ceftazidime [7]	Interpretation of the average FICI with ceftazidime [7]	Interpretation of the lowest FICI with ceftazidime [7]	The lowest FICI with ceftazidime [7]	Average FICI with ceftazidime [9]	The lowest FICI with ceftazidime [9]	MIC [11] [µg/mL]	MIC [12] [µg/mL]	MIC [13] [µg/mL]	MIC [14] [µg/mL]	MIC [15] [µg/mL]	zone of inhibition at 0.4 mg/disc [15] [mm]	MIC [16] [µg/mL]	viability at 72 h, 12.5 mg/L [8] [%]	also measured
OB(O)c1ccc(B(O)O)cc1 [1a]	> 400	400 (≈ 2410 µM)	> 400	> 400	17	> 400	0.16	S (FICI ≤ 0.5, synergy)	S (FICI ≤ 0.5, synergy)	0.08	0.30	0.15	400 (≈ 2410 µM)	200 (≈ 1210 µM)	400 (≈ 2410 µM)	200 (≈ 1210 µM)	400 (≈ 2410 µM)	14	> 400		viability at 72 h, 16 mg/L ([8]; 16 mg/L): 113 ± 12.5%; viability at 72 h, 32 mg/L ([8]; 32 mg/L): 103 ± 11.8%; viability at 72 h, 64 mg/L ([8]; 64 mg/L): 89.9 ± 11.4%; zone of inhibition at 300 µg/disc ([10]; agent 0.3 mg per disc): 19 mm; zone of inhibition at 300 µg/disc ([17]; agent 0.3 mg per disc): 21 mm; zone of inhibition at 300 µg/disc ([18]; agent 0.3 mg per disc): 23 mm
OB(O)c1ccc(B(O)O)c(F)c1 [1b]	> 400	25 (≈ 136 µM)	400 (≈ 2180 µM)	> 400	23	100 (≈ 544 µM)	0.18	S (FICI ≤ 0.5, synergy)	S (FICI ≤ 0.5, synergy)	0.14	0.17	0.10	200 (≈ 1090 µM)	200 (≈ 1090 µM)	100 (≈ 544 µM)	25 (≈ 136 µM)	100 (≈ 544 µM)	17	100 (≈ 544 µM)	140 ± 6.7	zone of inhibition at 0.4 mg/disc [2]: 14 mm; zone of inhibition at 0.4 mg/disc [6]: 12 mm; viability at 72 h, 25 mg/L [8]: 140 ± 8.3%; viability at 72 h, 50 mg/L [8]: 117 ± 1.3%; zone of inhibition at 100 µg/disc [10]: 11 mm; zone of inhibition at 0.4 mg/disc [13]: 13 mm; zone of inhibition at 0.4 mg/disc [14]: 14 mm; zone of inhibition at 0.4 mg/disc [16]: 22 mm; zone of inhibition at 100 µg/disc [17]: 20 mm; zone of inhibition at 100 µg/disc [18]: 20 mm
OB(O)c1ccc(B(O)O)c(F)c1F [1c]	> 400	200 (≈ 991 µM)	> 400	> 400	28	> 400	0.32	S (FICI ≤ 0.5, synergy)	S (FICI ≤ 0.5, synergy)	0.17	0.19	0.14	200 (≈ 991 µM)	200 (≈ 991 µM)	50 (≈ 248 µM)	25 (≈ 124 µM)	50 (≈ 248 µM)	28	400 (≈ 1980 µM)	112 ± 3.8	viability at 72 h, 25 mg/L [8]: 103 ± 3%; viability at 72 h, 50 mg/L [8]: 96.7 ± 3.3%; zone of inhibition at 100 µg/disc [10]: 6 mm; zone of inhibition at 0.4 mg/disc [11]: 15 mm; zone of inhibition at 0.4 mg/disc [12]: 16 mm; zone of inhibition at 0.4 mg/disc [13]: 22 mm; zone of inhibition at 0.4 mg/disc [14]: 22 mm; zone of inhibition at 100 µg/disc [17]: 20 mm; zone of inhibition at 100 µg/disc [18]: 18 mm
OB(O)c1cc(F)c(B(O)O)c(F)c1 [1d]	400 (≈ 1980 µM)	200 (≈ 991 µM)	200 (≈ 991 µM)	200 (≈ 991 µM)	15	200 (≈ 991 µM)	0.43	S (FICI ≤ 0.5, synergy)	S (FICI ≤ 0.5, synergy)	0.27	0.23	0.17	> 400	> 400	200 (≈ 991 µM)	25 (≈ 124 µM)	25 (≈ 124 µM)	21	200 (≈ 991 µM)	111.6 ± 1.1	zone of inhibition at 0.4 mg/disc [2]: 13 mm; zone of inhibition at 0.4 mg/disc [6]: 14 mm; viability at 72 h, 25 mg/L [8]: 104 ± 8.9%; viability at 72 h, 50 mg/L [8]: 83.3 ± 1.2%; zone of inhibition at 100 µg/disc [10]: 12 mm; zone of inhibition at 100 µg/disc [17]: 20 mm; zone of inhibition at 100 µg/disc [18]: 17 mm
OB(O)c1cc(F)c(B(O)O)cc1F [1e]	> 400	400 (≈ 1980 µM)	> 400	> 400	28	> 400	0.38	S (FICI ≤ 0.5, synergy)	S (FICI ≤ 0.5, synergy)	0.29	0.17	0.14	100 (≈ 496 µM)	200 (≈ 991 µM)	25 (≈ 124 µM)	12.5 (≈ 62 µM)	25 (≈ 124 µM)	21	> 400	107 ± 3.3	zone of inhibition at 0.4 mg/disc [2]: 13 mm; zone of inhibition at 0.4 mg/disc [6]: 15 mm; viability at 72 h, 25 mg/L [8]: 105 ± 10%; viability at 72 h, 50 mg/L [8]: 117 ± 4.6%; zone of inhibition at 100 µg/disc [10]: 11 mm; zone of inhibition at 0.4 mg/disc [11]: 14 mm; zone of inhibition at 0.4 mg/disc [12]: 15 mm; zone of inhibition at 0.4 mg/disc [13]: 26 mm; zone of inhibition at 0.4 mg/disc [14]: 20 mm; zone of inhibition at 0.4 mg/disc [16]: 16 mm; zone of inhibition at 100 µg/disc [17]: 20 mm; zone of inhibition at 100 µg/disc [18]: 18 mm
